Patent US20110092476A1, “Bicycloheteroaryl compounds as P2X7 modulators and uses thereof” (Renovis, Inc., priority 2006, published 2011)
Where two headings read alike, the source gives them in different places.

Tests used:
[1] = target: T1, P2X7 receptor (Homo sapiens, UniProt Q99572); experiment: IL-1β release assay in differentiated THP-1 cells stimulated with BzATP (Example 9); assay type: cell-based; settings: for IC50: THP-1 cells, IL-1β by ELISA
T1 construct: host or cells: THP-1 cells differentiated with LPS and IFN-γ
T1 sequence (Q99572 1-595): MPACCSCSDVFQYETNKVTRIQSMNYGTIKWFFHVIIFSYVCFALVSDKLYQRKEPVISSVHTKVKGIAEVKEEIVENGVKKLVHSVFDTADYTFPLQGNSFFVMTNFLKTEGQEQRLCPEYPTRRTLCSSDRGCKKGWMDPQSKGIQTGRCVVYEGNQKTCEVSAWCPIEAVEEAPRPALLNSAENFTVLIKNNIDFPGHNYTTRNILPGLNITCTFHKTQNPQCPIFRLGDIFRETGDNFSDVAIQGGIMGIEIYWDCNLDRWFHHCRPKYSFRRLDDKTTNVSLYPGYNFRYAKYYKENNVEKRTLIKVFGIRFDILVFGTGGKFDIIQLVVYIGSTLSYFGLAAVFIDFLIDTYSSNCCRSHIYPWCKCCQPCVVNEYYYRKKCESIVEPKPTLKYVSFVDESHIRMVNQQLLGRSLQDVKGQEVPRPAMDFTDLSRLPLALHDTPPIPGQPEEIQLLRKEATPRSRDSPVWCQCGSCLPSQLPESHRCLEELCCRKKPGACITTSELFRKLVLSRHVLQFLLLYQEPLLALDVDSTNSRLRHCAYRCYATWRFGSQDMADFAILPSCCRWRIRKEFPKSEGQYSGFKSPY
How it was run: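 THP-1 cells differentiated 16 h with 100 ng/mL LPS and 100 ng/mL IFN-γ, primed 2 h with fresh LPS, pretreated 30 min with compound, then stimulated 45 min with 250 uM BzATP (final). Supernatant IL-1β measured by ELISA; background-adjusted percent inhibition fitted to a four-parameter logistic for IC50.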

[2] = Half-life in human liver microsomes (HLM); settings: pH 7.4
Description: (§1) Test compounds (1 μM) are incubated with 3.3 mM MgCl2 and 0.78 mg/mL HLM (HL101) in 100 mM potassium phosphate buffer (pH 7.4) at 37° C. on the 96-deep well plate. The reaction mixture is split into two groups, a non-P450 and a P450 group. NADPH is only added to the reaction mixture of the P450 group. An aliquot of samples of P450 group is collected at 0, 10, 30, and 60 min time point, where 0 min time point indicated the time when NADPH is added into the reaction mixture of P450 group. […] Collected aliquots are extracted with acetonitrile solution containing an internal standard. […] The compound concentration in supernatant is measured by LC/MS/MS system.
(§2) The half-life value is obtained by plotting the natural logarithm of the peak area ratio of compounds/internal standard versus time. The slope of the line of best fit through the points yields the rate of metabolism (k). This is converted to a half-life value using following equations:

[3] = Pharmacokinetic evaluation following intravenous and oral administration in rats (oral bioavailability); assay type: in vivo, rat; settings: male Sprague-Dawley rats, PO 1 to 5 mg/kg vs IV 1 mg/kg, AUCinf dose-normalized
Description: Male Sprague-Dawley rats are acclimatized for at least 24 hours prior to experiment initiation. During acclimation period, all animals receive food and water ad libitum. However, food but not water is removed from the animal's cages at least 12 hours before initiation of the experiment. During the first 3 hours of experimentation, the animals receive only water ad libitum. At least three animals each are tested for intravenous and oral dosage. For intravenous formulation, compounds were dissolved (0.25 to 1 mg/mL) in a mixture of 3% dimethyl sulfoxide, 40% PEG 400 and the rest percentage of 40% Captisol in water (w/v). The animals are weighed before dosing. The determined body weight is used to calculate the dose volume for each animal.
Dose volume (mL/kg)=1 mg/kg/formulation concentration (mg/mL)
In instances where the formulation concentrations were less than 0.5 mg/mL, the dosing volume is about 2 mL/kg.
PO rats are typically dosed through oral gavage following the same dose volume formula as IV to achieve a dose level of 1 to 5 mg/kg. […] About 250 uL of blood is obtained at each time point from the animal. Equal volumes of 0.9% normal saline are replaced to prevent dehydration. The whole blood samples are maintained on ice until centrifugation. Blood samples are then centrifuged at 14,000 rpm for 10 minutes at 4° C. and the upper plasma layer transferred into a clean vial and stored at −80° C. The resulting plasma samples are then analyzed by liquid chromatography-tandem mass spectrometry. Following the measurement of plasma samples and dosing solutions, plasma concentration-time curve is plotted. Plasma exposure is calculated as the area under the concentration-time curve extrapolated to time infinite (AUinf). The AUCinf is averaged and the oral bioavailability (% F) for individual animal is calculated as:
AUCinf (PO)/AUCinf (IV), normalized to their respective dose levels. The % F is reported as the mean % F of all animals dosed orally with the compound of the invention at the specified level (see Table 4 below).
For the purpose of Table 4, oral bioavailability of each compound is expressed as follows: […]

[4] = Determination of aqueous (kinetic) solubility; assay type: physicochemical; settings: aqueous buffer, kinetic from dmso stock, buffer pH 7.4
Description: The mixture was vortexed for 1 hour and equilibrated overnight at room temperature. The mixture was filtered through a saturated filter and the filtrate was analyzed by LC/MS/MS.
For the purpose of Table 5, solubility of each compound is expressed as follows: […]

[5] = in vitro; settings: human, microsomes, pH 7.4
Description: as §1, §2

[6] = THP-1, read-out: IL-1β % Inhib. @ 0.3 or 0.1 uM
[7] = 0.3 μM compound, differentiated THP-1 cells, BzATP 250 uM, "+" symbols, read-out: IL-1β % Inhib. @ 0.3 or 0.1 uM

SMILES | half-life at 1 μM [2] [h] | Oral Bioavailability F (%) [3] | solubility [4] [µM] | inhibition at 0.3 µM [1, 7] [%] | inhibition at 0.3 µM ([1]; differentiated THP-1 cells, BzATP 250 uM, "+" symbols = compound at 0.3 μM, read-out: IL-1β % Inhib. @ 0.3 or 0.1 uM) [%] | inhibition at 0.3 µM [1, 6] [%] | half-life [5] [h] | IC50 ([1]; BzATP 250 uM) [nM]
C[C@H](C(N)=O)n1ccc2c(NC(=O)Cc3ccc(C(F)(F)F)cc3)c(Cl)ccc2c1=O [Compound 316, (R)-2-{6-Chloro-1-oxo-5-[2-(4-trifluoromethyl-phenyl)-acetylamino]-1H-isoquinolin-2-yl}-propionamide] | 3.25 | ++ (26-50% F) | < 25 |  |  | > 76 |  | 
C[C@H](CO)n1ccc2c(NC(=O)Cc3ccc(Cl)c(F)c3)cccc2c1=O [Compound 330, 2-(4-Chloro-3-fluorophenyl)-N-[2-((R)-2-hydroxy-1-methyl-ethyl)-1-oxo-1,2-dihydro-isoquinolin-5-yl]-acetamide] | 1.41 | ++++ (>75% F) | > 75 | > 76 |  |  |  | 
C[C@H](CO)n1ccc2c(NC(=O)Cc3ccc(F)c(C(F)(F)F)c3)cccc2c1=O [Compound 339] | 0.93 | +++ (51-75% F) | > 75 | > 76 |  |  |  | 
C[C@@H](C(N)=O)n1ccc2c(NC(=O)Cc3ccc(C(F)(F)F)cc3)cccc2c1=O [Compound 351] | 2.36 | + (0-25% F) | < 25 | > 76 |  |  |  | 
C[C@@H](C(N)=O)n1ccc2c(NC(=O)Cc3ccc(Cl)c(C(F)(F)F)c3)cccc2c1=O [Compound 353] | 1.01 | + (0-25% F) | < 25 | > 76 |  |  |  | 
C[C@H](CO)n1ccc2c(NC(=O)Cc3ccc(C(F)(F)F)cc3F)cccc2c1=O [Compound 359] | 1.16 | ++++ (>75% F) | < 25 | > 76 |  |  |  | 
C[C@H](CO)n1ccc2c(NC(=O)Cc3ccc(C(F)(F)F)c(F)c3)c(Cl)ccc2c1=O [Compound 375, N-[6-Chloro-2-((R)-2-hydroxy-1-methyl-ethyl)-1-oxo-1,2-dihydro-isoquinolin-5-yl]-2-(3-fluoro-4-trifluoromethyl-phenyl)-acetamide] | 1.63 | ++++ (>75% F) | > 75 | > 76 |  |  |  | 
C[C@H](CO)n1ccc2c(NC(=O)Cc3ccc(Cl)c(Cl)c3)c(Cl)ccc2c1=O [Compound 376] | 0.9 | ++ (26-50% F) | > 75 | > 76 |  |  |  | 
C[C@H](CO)n1ccc2c(NC(=O)Cc3ccc(F)c(C(F)(F)F)c3)c(Cl)ccc2c1=O [Compound 377, N-[6-Chloro-2-((R)-2-hydroxy-1-methyl-ethyl)-1-oxo-1,2-dihydro-isoquinolin-5-yl]-2-(4-fluoro-3-trifluoromethyl-phenyl)-acetamide] | 1.01 | +++ (51-75% F) | > 75 |  |  | > 76 |  | 
O=C(Cc1ccc(C(F)(F)F)c(F)c1)Nc1c(Cl)ccc2c(=O)n(CCO)ccc12 [Compound 383] |  | ++++ (>75% F) | < 25 | > 76 |  |  | 3.65 | 
O=C(Cc1ccc(F)c(C(F)(F)F)c1)Nc1c(Cl)ccc2c(=O)n(CCO)ccc12 [Compound 386, N-[6-Chloro-2-(2-hydroxy-ethyl)-1-oxo-1,2-dihydro-isoquinolin-5-yl]-2-(4-fluoro-3-trifluoromethyl-phenyl)-acetamide] | 1.08 | + (0-25% F) | < 25 |  |  | > 76 |  | 
Cc1ccc2c(=O)n([C@H](C)CO)ccc2c1NC(=O)Cc1ccc(C(F)(F)F)c(F)c1 [Compound 393, N-[6-Methyl-2-((R)-2-hydroxy-1-methyl-ethyl)-1-oxo-1,2-dihydro-isoquinolin-5-yl]-2-(3-fluoro-4-trifluoromethyl-phenyl)-acetamide] |  | +++ (51-75% F) | > 75 |  |  | > 76 | 1.45 | 5.38

Now from value to compound, other results behind:

half-life at 1 μM [2] [h] | Oral Bioavailability F (%) [3] | solubility [4] [µM] | inhibition at 0.3 µM [1, 7] [%] | inhibition at 0.3 µM ([1]; differentiated THP-1 cells, BzATP 250 uM, "+" symbols = compound at 0.3 μM, read-out: IL-1β % Inhib. @ 0.3 or 0.1 uM) [%] | SMILES | inhibition at 0.3 µM [1, 6] [%] | half-life [5] [h] | IC50 ([1]; BzATP 250 uM) [nM]
0.7 | ++ (26-50% F) | > 75 | > 76 |  | C[C@H](CO)n1ccc2c(NC(=O)Cc3cccc(C(F)(F)F)c3F)cccc2c1=O [Compound 324] |  |  | 
0.93 | ++ (26-50% F) | > 75 | > 76 |  | C[C@H](CO)n1ccc2c(NC(=O)Cc3ccc(C(F)(F)F)c(F)c3)cccc2c1=O [Compound 335] |  |  | 
1.54 | ++++ (>75% F) | < 25 | > 76 |  | O=C(Cc1ccc(C(F)(F)F)c(F)c1)Nc1cccc2c(=O)n(CCO)ccc12 [Compound 357] |  |  | 
0.7 | ++ (26-50% F) | > 75 | > 76 |  | Cc1ccc2c(=O)n([C@H](C)CO)ccc2c1NC(=O)Cc1ccc(F)c(C(F)(F)F)c1 [Compound 394] |  |  | 5.54
3.73 | ++ (26-50% F) | > 75 |  | > 76 | Cc1ccc2c(=O)n(CCO)ccc2c1NC(=O)Cc1ccc(C(F)(F)F)c(F)c1 [Compound 400] |  |  | 
